These results are taken from EP4778924A1 (Huons Co., Ltd., priority 2023, dated 2025).

Each structure is given as a SMILES string. pIC50: −log10 of the molar value. Counter-ions that a name gives are not always drawn.

The assay deals with T1, Proton Pump (H^+,K^+-ATPase) (Sus scrofa, UniProt P19156).
T1 construct: gastric vesicles were isolated from porcine stomachs; from tissue; host or cells: porcine stomach (gastric vesicles)
The assay can be described thus: Inhibitory activity on proton pump (H+,K+-ATPase) activity, porcine gastric vesicles, malachite green readout. It counts as biochemical. As to conditions: for pIC50: porcine gastric vesicles, pH 6.5, 8 mM KCl, 0.2 mM ATP; for inhibitory activity against proton pump activity: result in words. The protocol: Specifically, gastric vesicles were isolated from porcine stomachs, and the protein content of the vesicles was quantified using a BSA kit (Bio-Rad, 5000205). All reactions were performed in 96-well plates with a reaction volume of […] containing 100 ng of vesicles. 10 mM valinomycin and the test compound were added to reaction buffer (50 mM Tris-HEPES, 5 mM MgCl2, 8 mM KCl, pH 6.5) containing porcine gastric vesicles at various concentrations, and the mixture was incubated at 37°C for 30 minutes. DMSO or test compounds at different concentrations were added after diluting them to a final DMSO concentration of 0.1%. 0.2 mM adenosine triphosphate (ATP) was then added to the reaction buffer and incubated at 37°C for 20 minutes. The reaction was stopped with 0.2% Tween 20, followed by the addition of malachite green (Sigma Aldrich, MAK307) and incubation at room temperature for 30 minutes. The optical density (OD) value was measured at 620 nm using a microplate reader (Spectramax M5e, Molecular devices). The percent (%) inhibition was derived from the OD values of the control group and various concentrations of the test compounds. The IC50 of the test compounds was analyzed using nonlinear regression using the GraphPad Prism8 program using the % inhibition value at each concentration.

T1 sequence (P19156 2-1034 limits assumed): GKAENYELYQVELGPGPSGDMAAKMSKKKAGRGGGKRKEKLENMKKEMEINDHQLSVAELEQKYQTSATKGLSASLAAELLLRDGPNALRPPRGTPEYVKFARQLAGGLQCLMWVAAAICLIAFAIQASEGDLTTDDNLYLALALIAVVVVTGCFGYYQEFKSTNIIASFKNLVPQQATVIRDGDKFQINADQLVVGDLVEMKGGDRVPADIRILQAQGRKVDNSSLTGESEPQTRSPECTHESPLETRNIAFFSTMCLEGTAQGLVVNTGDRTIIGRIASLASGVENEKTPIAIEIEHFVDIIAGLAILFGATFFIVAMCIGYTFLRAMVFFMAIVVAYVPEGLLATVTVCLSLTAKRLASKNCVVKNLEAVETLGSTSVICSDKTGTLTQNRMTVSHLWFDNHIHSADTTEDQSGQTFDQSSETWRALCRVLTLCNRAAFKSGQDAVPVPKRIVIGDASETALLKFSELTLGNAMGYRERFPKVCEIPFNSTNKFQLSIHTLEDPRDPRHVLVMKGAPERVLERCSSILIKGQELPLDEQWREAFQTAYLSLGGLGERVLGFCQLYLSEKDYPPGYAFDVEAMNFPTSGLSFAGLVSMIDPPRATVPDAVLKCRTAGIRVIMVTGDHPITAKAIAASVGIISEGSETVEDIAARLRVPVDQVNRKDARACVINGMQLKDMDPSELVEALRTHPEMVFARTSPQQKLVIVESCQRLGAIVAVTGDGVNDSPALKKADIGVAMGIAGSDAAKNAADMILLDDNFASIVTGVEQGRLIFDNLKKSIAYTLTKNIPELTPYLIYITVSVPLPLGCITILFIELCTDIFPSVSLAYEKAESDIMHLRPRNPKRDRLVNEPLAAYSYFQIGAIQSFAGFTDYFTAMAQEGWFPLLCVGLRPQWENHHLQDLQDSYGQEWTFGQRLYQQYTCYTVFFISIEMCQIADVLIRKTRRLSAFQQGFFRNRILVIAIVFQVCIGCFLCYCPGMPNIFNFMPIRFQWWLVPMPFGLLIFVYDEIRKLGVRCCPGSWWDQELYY
T1 sequence (P18434 whole entry partner): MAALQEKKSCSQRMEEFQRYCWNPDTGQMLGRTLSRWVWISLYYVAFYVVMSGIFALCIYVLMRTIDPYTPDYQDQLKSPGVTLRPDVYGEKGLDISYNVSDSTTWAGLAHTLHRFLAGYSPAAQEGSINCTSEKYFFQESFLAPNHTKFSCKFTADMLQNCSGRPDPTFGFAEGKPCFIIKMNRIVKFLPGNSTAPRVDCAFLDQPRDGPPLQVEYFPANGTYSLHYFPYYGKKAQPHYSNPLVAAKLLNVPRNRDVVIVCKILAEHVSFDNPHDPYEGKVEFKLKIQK

Usually pIC50 stands for the IC50 on a negative log10 scale, so that one unit is a factor of ten. Higher therefore signals a low IC50. The molecule `Cc1cccc(C)c1CNc1cc(NC(=O)N2CC(=O)C2)cn2c(C)c(C)nc12` [Example 69, N-(8-((2,6-dimethylbenzyl)amino)-2,3-dimethylimidazo[1,2-a]pyridin-6-yl)-3-oxoazetidine-1-carboxamide citrate] had a pIC50 greater than 7.30.
Molecule `Cc1cccc(C)c1CNc1cc(NC(=O)[C@@H]2CN2)cn2c(C)c(C)nc12` [Example 109, (S)-N-(8-((2,6-dimethylbenzyl)amino)-2,3-dimethylimidazo[1,2-a]pyridin-6-yl)aziridine-2-carboxamide hydrochloride] gave a pIC50 of 6.30 to 7.00.
Take `CC(=O)OCCNC(=O)Nc1cc(NCc2c(C)cccc2C)c2nc(C)c(C)n2c1` [Example 62, 2-(3-(8-((2,6-dimethylbenzyl)amino)-2,3-dimethylimidazo[1,2-a]pyridin-6-yl)ureido)ethyl acetate hydrochloride]: the negative logarithm of the IC50 (pIC50) was 6.30 to 7.00.
The same measure, in the same setting: next, `Cc1cccc(C)c1CNc1cc(NC(=O)CNC(=O)C(C)(C)C)cn2c(C)c(C)nc12` [Example 55, N-(2-((8-((2,6-dimethylbenzyl)amino)-2,3-dimethylimidazo[1,2-a]pyridin-6-yl)amino)-2-oxoethyl)pivalamide]: less than 6.30.
The molecule `Cc1cccc(C)c1CNc1cc(NC(=O)C(C)C)cn2c(C)c(C)nc12` [Example 7, N-(8-((2,6-dimethylbenzyl)amino)-2,3-dimethylimidazo[1,2-a]pyridin-6-yl)isobutyramide] had a pIC50 of 6.30 to 7.00.
Still for that read-out and setting: next, `CCC(=O)Nc1cc(NCc2c(C)cccc2C)c2nc(C)c(C)n2c1` [Example 13, N-(8-((2,6-dimethylbenzyl)amino)-2,3-dimethylimidazo[1,2-a]pyridin-6-yl)propionamide]: 7.00 to 7.30.
Regarding `Cc1cccc(C)c1CNc1cc(NC(=O)N2Cc3ccncc3C2)cn2c(C)c(C)nc12` [Example 68, N-(8-((2,6-dimethylbenzyl)amino)-2,3-dimethylimidazo[1,2-a]pyridin-6-yl)-1,3-dihydro-2H-pyrrolo[3,4-c]pyridine-2-carboxamide], the pIC50 is 7.00 to 7.30.
`Cc1cccc(C)c1CNc1cc(NC(=O)CNC(=O)CO)cn2c(C)c(C)nc12` [Example 95, N-(8-((2,6-dimethylbenzyl)amino)-2,3-dimethylimidazo[1,2-a]pyridin-6-yl)-2-(2-hydroxyacetamido)acetamide] showed a pIC50 greater than 7.30.
Take `Cc1cc(F)cc(C)c1CNc1cc(NC(=O)[C@@H](C)O)cn2c(C)c(C)nc12` [Example 117, (R)-N-(8-((4-fluoro-2,6-dimethylbenzyl)amino)-2,3-dimethylimidazo[1,2-a]pyridin-6-yl)-2-hydroxypropanamide]: the pIC50 is greater than 7.30 and the “inhibitory activity against proton pump activity” value is “excellent inhibitory properties”.
In turn, `Cc1cccc(C)c1CNc1cc(NC(=O)CNC(=O)C(C)(F)F)cn2c(C)c(C)nc12` [Example 57, N-(2-((8-((2,6-dimethylbenzyl)amino)-2,3-dimethylimidazo[1,2-a]pyridin-6-yl)amino)-2-oxoethyl)-2,2-difluoropropanamide] gave a pIC50 of 6.30 to 7.00.
`Cc1cccc(C)c1CNc1cc(NC(=O)[C@H]2CCCCN2)cn2c(C)c(C)nc12` [Example 90, (R)-N-(8-((2,6-dimethylbenzyl)amino)-2,3-dimethylimidazo[1,2-a]pyridin-6-yl)piperidine-2-carboxamide hydrochloride] gave a pIC50 of 7.00 to 7.30.
On to `CC(=O)O[C@H](C)C(=O)Nc1cc(NCc2c(C)cc(F)cc2C)c2nc(C)c(C)n2c1` [Example 111, (R)-1-((8-((4-fluoro-2,6-dimethylbenzyl)amino)-2,3-dimethylimidazo[1,2-a]pyridin-6-yl)amino)-1-oxopropan-2-yl acetate], for which the pIC50 was 6.30 to 7.00.
On to `Cc1cccc(C)c1CNc1cc(NC(=O)N2CCOCC2)cn2c(C)c(C)nc12` [Example 61, N-(8-((2,6-dimethylbenzyl)amino)-2,3-dimethylimidazo[1,2-a]pyridin-6-yl)morpholine-4-carboxamide citrate], for which the negative-log IC50 (pIC50) was 7.00 to 7.30.
Take `Cc1cccc(C)c1CNc1cc(NC(=O)CCC(=O)O)cn2c(C)c(C)nc12` [Example 38, 4-((8-((2,6-dimethylbenzyl)amino)-2,3-dimethylimidazo[1,2-a]pyridin-6-yl)amino)-4-oxobutanoic acid]: the pIC50 is less than 6.30.
On to `Cc1cccc(C)c1CNc1cc(NC(=O)[C@H]2CCN(C(=O)CO)C2)cn2c(C)c(C)nc12` [Example 110, (S)-N-(8-((2,6-dimethylbenzyl)amino)-2,3-dimethylimidazo[1,2-a]pyridin-6-yl)-1-(2-hydroxyacetyl)pyrrolidine-3-carboxamide citrate], for which the pIC50 was 6.30 to 7.00.
Still for that read-out and setting: next, `Cc1cccc(C)c1CNc1cc(NC(=O)[C@H](C)N)cn2c(C)c(C)nc12` [Example 19, (S)-2-amino-N-(8-((2,6-dimethylbenzyl)amino)-2,3-dimethylimidazo[1,2-a]pyridin-6-yl)propanamide hydrochloride]: 7.00 to 7.30; `Cc1cc(F)cc(C)c1CNc1cc(NC(=O)N(C)C)cn2c(C)c(C)nc12` [Example 49, 3-(8-((4-fluoro-2,6-dimethylbenzyl)amino)-2,3-dimethylimidazo[1,2-a]pyridin-6-yl)-1,1-dimethylurea hydrochloride]: greater than 7.30.
For the molecule `Cc1cccc(C)c1CNc1cc(NC(=O)[C@H]2CNCCN2)cn2c(C)c(C)nc12` [Example 85, (R)-N-(8-((2,6-dimethylbenzyl)amino)-2,3-dimethylimidazo[1,2-a]pyridin-6-yl)piperazine-2-carboxamide hydrochloride], the pIC50 is 6.30 to 7.00.
Still for that read-out and setting: next, `Cc1nc2c(O[C@H]3CCOc4cc(F)cc(F)c43)cc(C(=O)N(C)C)cc2[nH]1` [Tegoprazan, reference compound]: less than 6.30; `Cc1cccc(C)c1CNc1cc(NC(=O)N2CCCC(c3ccccc3)C2)cn2c(C)c(C)nc12` (centres unmarked) [Example 83, N-(8-((2,6-dimethylbenzyll)amino)-2,3-dimethylimidazo[1,2-a]pyridin-6-yl)-3-phenylpiperidine-1-carboxamide]: 6.30 to 7.00.
For `Cc1cccc(C)c1CNc1cc(NC(=O)C[C@@H]2CCCN2)cn2c(C)c(C)nc12` [Example 93, (S)-N-(8-((2,6-dimethylbenzyl)amino)-2,3-dimethylimidazo[1,2-a]pyridin-6-yl)-2-(pyrrolidin-2-yl)acetamide hydrochloride], the pIC50 is greater than 7.30.
Turning to `Cc1cccc(C)c1CNc1cc(NC(=O)C(C)(F)F)cn2c(C)c(C)nc12` [Example 16, N-(8-((2,6-dimethylbenzyl)amino)-2,3-dimethylimidazo[1,2-a]pyridin-6-yl)-2,2-difluoropropanamide], the pIC50 was 6.30 to 7.00.
For `Cc1cccc(C)c1CNc1cc(NC(=O)CN)cn2c(C)c(C)nc12.Cl` [Example 10, 2-amino-N-(8-((2,6-dimethylbenzyl)amino)-2,3-dimethylimidazo[1,2-a]pyridin-6-yl)acetamide hydrochloride], the pIC50 is greater than 7.30 and the “inhibitory activity against proton pump activity” value was “excellent inhibitory properties”.
As to `Cc1cccc(C)c1CNc1cc(NC(=O)NCCO)cn2c(C)c(C)nc12` [Example 88, 1-(8-((2,6-dimethylbenzyl)amino)-2,3-dimethylimidazo[1,2-a]pyridin-6-yl)-3-(2-hydroxyethyl)urea citrate], the pIC50 was greater than 7.30.
